Where two headings read alike, the source gives them in different places.
Key:
[1] = biological target: EGFR L858R/C797S (Homo sapiens, UniProt P00533, C797S/L858R); experiment: Biochemical EGFR kinase assay (Lance Ultra TR-FRET), double mutant L858R/C797S
Procedure, shortened: (§1)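 Enzyme reactions lasted 1 hour at room temperature with test compounds between 0.003 and 10 μM, followed by 10 mM EDTA quench.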

[2] = biological target: EGFR del19/T790M/C797S (Homo sapiens, UniProt P00533, C797S/DEL746-750/T790M); experiment: Biochemical EGFR kinase assay (Lance Ultra TR-FRET), triple mutant del19/T790M/C797S
Procedure, shortened: as §1

[3] = biological target: EGFR wildtype (WT) (Homo sapiens, UniProt P00533); experiment: Biochemical EGFR kinase assay (Lance Ultra TR-FRET), wildtype
Procedure, shortened: as §1

[4] = biological target: EGFR del19/C797S (Homo sapiens, UniProt P00533, C797S/DEL746-750); experiment: Biochemical EGFR kinase assay (Lance Ultra TR-FRET), double mutant del19/C797S
Procedure, shortened: as §1

[5] = biological target: EGFR L858R/T790M/C797S (Homo sapiens, UniProt P00533, C797S/L858R/T790M); experiment: Biochemical EGFR kinase assay (Lance Ultra TR-FRET), triple mutant L858R/T790M/C797S
Procedure, shortened: as §1

[6] = IC50 L858R/C797S (nM) 100 μM ATP, 100 μM ATP
[7] = Km ATP, read-out: IC50 L858R/C797S (nM) Km ATP
[8] = IC50 del19/T790M/C797S (nM) 100 μM ATP, 100 μM ATP
[9] = Km ATP, read-out: IC50 del19/T790M/C797S (nM) Km ATP
[10] = IC50 WT (nM) 100 μM ATP, 100 μM ATP
[11] = IC50 del19/C797S (nM) 100 μM ATP, 100 μM ATP
[12] = Km ATP, read-out: IC50 del19/C797S (nM) Km ATP
[13] = IC50 L858R/T790M/C797S (nM) 100 μM ATP, 100 μM ATP
[14] = Km ATP, read-out: IC50 L858R/T790M/C797S (nM) Km ATP
[15] = Km ATP, read-out: IC50 WT (nM) Km ATP

Chain of EGFR wildtype (WT) (P00533 25-1210): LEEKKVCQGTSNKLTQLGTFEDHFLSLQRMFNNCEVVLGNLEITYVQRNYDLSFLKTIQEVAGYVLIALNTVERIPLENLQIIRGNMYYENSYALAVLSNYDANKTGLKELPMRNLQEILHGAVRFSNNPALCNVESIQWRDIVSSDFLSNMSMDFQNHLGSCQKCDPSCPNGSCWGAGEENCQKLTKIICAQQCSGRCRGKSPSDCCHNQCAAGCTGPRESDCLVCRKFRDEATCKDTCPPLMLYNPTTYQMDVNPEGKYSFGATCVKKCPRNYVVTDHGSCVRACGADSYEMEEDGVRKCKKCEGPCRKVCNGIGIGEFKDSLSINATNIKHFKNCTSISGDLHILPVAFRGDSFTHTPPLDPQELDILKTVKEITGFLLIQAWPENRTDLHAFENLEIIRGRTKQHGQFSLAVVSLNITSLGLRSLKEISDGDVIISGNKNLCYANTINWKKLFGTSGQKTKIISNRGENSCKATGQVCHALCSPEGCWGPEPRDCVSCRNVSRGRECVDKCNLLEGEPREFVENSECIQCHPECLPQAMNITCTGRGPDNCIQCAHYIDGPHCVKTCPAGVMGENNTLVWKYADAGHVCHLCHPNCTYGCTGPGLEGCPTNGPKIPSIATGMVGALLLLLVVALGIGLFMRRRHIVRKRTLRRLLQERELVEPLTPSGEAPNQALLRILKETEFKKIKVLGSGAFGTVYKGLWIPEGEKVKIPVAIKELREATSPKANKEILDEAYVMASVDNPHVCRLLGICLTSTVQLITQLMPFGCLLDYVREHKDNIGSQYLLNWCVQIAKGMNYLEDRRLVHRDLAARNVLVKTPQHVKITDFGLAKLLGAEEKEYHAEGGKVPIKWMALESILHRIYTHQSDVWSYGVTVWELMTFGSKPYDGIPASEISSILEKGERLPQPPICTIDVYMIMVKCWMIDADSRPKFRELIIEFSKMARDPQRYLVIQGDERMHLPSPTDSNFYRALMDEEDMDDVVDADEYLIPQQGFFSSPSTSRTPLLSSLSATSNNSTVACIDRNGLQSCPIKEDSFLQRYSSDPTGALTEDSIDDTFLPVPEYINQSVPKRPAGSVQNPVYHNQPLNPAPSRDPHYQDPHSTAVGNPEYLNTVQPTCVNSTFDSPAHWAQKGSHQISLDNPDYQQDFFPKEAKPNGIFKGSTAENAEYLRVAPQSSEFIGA
Chain of EGFR del19/C797S (P00533 with tags, fused parts or gaps DEL746-750/C797S): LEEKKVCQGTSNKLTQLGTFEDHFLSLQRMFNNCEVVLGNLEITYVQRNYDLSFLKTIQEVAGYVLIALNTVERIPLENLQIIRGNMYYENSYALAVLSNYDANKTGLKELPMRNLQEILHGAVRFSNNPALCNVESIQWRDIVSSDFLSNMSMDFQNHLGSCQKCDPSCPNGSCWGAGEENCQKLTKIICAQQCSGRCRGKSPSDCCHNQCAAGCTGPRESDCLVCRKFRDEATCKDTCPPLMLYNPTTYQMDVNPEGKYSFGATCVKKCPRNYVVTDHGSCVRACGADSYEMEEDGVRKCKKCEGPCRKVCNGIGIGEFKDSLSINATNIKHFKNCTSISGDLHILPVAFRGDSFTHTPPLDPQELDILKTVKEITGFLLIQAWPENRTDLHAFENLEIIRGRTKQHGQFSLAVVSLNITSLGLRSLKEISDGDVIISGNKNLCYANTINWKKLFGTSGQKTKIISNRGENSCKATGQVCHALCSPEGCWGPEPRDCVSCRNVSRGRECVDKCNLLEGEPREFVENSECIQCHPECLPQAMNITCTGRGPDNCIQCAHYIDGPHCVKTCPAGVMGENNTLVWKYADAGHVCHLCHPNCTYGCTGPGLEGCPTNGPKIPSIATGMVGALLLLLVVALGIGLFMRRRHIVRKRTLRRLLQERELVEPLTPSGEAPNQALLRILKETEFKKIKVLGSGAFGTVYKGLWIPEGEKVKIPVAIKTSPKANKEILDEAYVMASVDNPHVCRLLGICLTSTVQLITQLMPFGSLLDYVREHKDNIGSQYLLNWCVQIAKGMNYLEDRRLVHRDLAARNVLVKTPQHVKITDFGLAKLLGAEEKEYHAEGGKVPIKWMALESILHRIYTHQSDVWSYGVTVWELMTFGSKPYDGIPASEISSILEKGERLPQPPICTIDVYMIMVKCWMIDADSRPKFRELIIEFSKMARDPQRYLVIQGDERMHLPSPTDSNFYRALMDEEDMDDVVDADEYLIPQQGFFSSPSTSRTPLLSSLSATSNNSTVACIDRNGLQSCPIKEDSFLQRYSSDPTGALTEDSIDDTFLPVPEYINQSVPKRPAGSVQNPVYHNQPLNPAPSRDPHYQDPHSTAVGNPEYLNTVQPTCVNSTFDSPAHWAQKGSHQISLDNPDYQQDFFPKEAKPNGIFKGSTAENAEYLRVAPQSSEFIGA
Chain of EGFR L858R/C797S (P00533 25-1210 C797S/L858R): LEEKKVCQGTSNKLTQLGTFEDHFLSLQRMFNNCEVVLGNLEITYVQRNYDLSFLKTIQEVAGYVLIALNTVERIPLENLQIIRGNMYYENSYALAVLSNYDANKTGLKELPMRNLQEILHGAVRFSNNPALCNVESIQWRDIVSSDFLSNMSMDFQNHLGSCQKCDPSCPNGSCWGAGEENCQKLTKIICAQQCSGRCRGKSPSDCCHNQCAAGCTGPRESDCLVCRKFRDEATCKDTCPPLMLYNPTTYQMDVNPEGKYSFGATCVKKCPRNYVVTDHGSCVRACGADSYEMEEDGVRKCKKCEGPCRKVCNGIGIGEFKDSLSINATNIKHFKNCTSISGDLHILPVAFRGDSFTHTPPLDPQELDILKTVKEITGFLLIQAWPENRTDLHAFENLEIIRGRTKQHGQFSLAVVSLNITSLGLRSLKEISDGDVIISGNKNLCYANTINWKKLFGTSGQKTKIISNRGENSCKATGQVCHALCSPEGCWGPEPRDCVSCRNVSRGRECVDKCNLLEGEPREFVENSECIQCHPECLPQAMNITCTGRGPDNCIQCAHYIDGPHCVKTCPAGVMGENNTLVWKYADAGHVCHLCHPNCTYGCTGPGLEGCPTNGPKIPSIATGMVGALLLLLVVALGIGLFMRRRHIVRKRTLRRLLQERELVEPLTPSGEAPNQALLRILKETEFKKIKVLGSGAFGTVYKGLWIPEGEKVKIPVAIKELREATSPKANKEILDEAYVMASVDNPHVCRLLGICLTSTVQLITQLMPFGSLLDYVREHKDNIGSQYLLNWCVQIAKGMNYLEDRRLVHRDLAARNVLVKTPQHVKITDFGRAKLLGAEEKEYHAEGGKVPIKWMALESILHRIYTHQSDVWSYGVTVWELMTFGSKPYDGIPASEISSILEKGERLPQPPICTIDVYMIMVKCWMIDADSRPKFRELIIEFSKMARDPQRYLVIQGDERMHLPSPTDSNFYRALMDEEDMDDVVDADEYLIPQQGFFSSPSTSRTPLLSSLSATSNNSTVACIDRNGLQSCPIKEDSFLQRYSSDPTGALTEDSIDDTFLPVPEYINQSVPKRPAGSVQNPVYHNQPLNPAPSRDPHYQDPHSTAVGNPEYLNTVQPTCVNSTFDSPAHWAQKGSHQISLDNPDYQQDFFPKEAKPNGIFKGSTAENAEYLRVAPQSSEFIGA
Chain of EGFR L858R/T790M/C797S (P00533 25-1210 T790M/C797S/L858R): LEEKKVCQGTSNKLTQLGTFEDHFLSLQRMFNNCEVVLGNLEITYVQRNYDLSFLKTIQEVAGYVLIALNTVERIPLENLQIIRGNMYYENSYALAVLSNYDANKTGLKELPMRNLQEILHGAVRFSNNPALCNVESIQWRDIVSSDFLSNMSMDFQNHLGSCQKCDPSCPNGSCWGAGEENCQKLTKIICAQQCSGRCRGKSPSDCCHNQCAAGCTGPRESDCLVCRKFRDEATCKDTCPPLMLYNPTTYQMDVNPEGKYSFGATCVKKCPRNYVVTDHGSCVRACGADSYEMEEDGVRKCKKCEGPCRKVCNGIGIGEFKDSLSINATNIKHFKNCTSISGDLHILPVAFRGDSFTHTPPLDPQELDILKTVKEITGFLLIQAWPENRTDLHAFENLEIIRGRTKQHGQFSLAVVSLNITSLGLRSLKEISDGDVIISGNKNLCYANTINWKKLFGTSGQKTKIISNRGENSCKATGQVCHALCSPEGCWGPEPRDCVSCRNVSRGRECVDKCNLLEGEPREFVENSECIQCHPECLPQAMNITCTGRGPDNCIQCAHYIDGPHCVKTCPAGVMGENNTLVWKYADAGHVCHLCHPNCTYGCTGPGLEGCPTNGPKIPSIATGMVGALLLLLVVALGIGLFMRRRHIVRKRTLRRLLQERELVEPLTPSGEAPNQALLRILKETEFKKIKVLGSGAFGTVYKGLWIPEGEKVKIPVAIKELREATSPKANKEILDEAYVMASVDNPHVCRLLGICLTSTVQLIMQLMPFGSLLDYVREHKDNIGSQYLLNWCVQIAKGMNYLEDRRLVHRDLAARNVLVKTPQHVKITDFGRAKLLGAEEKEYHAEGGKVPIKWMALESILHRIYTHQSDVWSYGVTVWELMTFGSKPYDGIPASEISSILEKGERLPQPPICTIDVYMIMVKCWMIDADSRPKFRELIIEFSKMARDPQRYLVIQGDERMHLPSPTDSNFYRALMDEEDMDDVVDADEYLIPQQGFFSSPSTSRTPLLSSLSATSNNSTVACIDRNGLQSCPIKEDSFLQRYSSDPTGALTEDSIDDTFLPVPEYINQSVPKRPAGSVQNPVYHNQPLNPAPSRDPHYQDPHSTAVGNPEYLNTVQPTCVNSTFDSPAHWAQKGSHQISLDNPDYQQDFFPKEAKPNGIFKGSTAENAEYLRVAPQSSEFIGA

Compound | IC50 [1, 6] [nM] | IC50 [1, 7] [nM] | IC50 [2, 8] [nM] | IC50 [2, 9] [nM] | IC50 [3, 10] [nM] | IC50 [4, 11] [nM] | IC50 [4, 12] [nM] | IC50 [5, 13] [nM] | IC50 [5, 14] [nM] | IC50 [3, 15] [nM]
Cn1nc(-c2cnc(Nc3ccnc(-c4cnn(S(=O)(=O)C5CC5)c4)n3)cc2N[C@H]2CC[C@@H](CN3CCC3)CC2)cc1C(F)(F)F [Example 264, N^4-((1s,4s)-4-(Azetidin-1-ylmethyl)cyclohexyl)-N^2-(2-(1-(cyclopropylsulfonyl)-1H-pyrazol-4-yl)pyrimidin-4-yl)-5-(1-methyl-5-(trifluoromethyl)-1H-pyrazol-3-yl)pyridine-2,4-diamine] | 2.2 | 0.4 | 1.4 | 1.7 | 244 | 0.9 | 0.8 | 0.6 | 0.4 | –
CC(C)(O)[C@H]1CC[C@@H](Nc2cc(Nc3ccnc(-c4cnn(S(=O)(=O)C5CC5)c4)n3)ncc2-c2ccn(CC(F)(F)F)n2)CC1 [Example 265, 2-((1s,4s)-4-((2-((2-(1-(Cyclopropylsulfonyl)-1H-pyrazol-4-yl)pyrimidin-4-yl)amino)-5-(1-(2,2,2-trifluoroethyl)-1H-pyrazol-3-yl)pyridin-4-yl)amino)cyclohexyl)propan-2-ol] | 187 | 6.6 | 5.4 | – | > 10000 | 12.2 | 11.8 | 7.4 | – | 86.8
CN(C)C[C@H]1CC[C@@H](Nc2cc(Nc3ccnc(-c4cnn(S(=O)(=O)C5CC5)c4)n3)ncc2-c2ccn(CC(F)(F)F)n2)CC1 [Example 266, N^2-(2-(1-(Cyclopropylsulfonyl)-1H-pyrazol-4-yl)pyrimidin-4-yl)-N^4-((1s,4s)-4-((dimethylamino)methyl)cyclohexyl)-5-(1-(2,2,2-trifluoroethyl)-1H-pyrazol-3-yl)pyridine-2,4-diamine] | 0.9 | – | 0.1 | – | 206 | 0.3 | – | 0.1 | – | –

Continued, values first:

IC50 [1, 6] [nM] | IC50 [1, 7] [nM] | IC50 [2, 8] [nM] | IC50 [2, 9] [nM] | IC50 [3, 10] [nM] | IC50 [4, 11] [nM] | IC50 [4, 12] [nM] | IC50 [5, 13] [nM] | IC50 [5, 14] [nM] | IC50 [3, 15] [nM] | Compound
576 | 25.4 | 0.1 | 0.2 | 8270 | 8.8 | 6.7 | 0.1 | 0.5 | 28.7 | CN(C)CC1(C)CCC(Nc2cc(Nc3ccnc(-c4cnn(S(=O)(=O)C5CC5)c4)n3)ncc2-c2ccn(CC(F)(F)F)n2)CC1 (stereo not shown) [Example 267, N^2-(2-(1-(Cyclopropylsulfonyl)-1H-pyrazol-4-yl)pyrimidin-4-yl)-N^4-(4-((dimethylamino)methyl)-4-methylcyclohexyl)-5-(1-(2,2,2-trifluoroethyl)-1H-pyrazol-3-yl)pyridine-2,4-diamine]
10.7 | 3.2 | 0.6 | 2.5 | > 10000 | 200 | 7.6 | 0.6 | 0.3 | 74.4 | O=S(=O)(C1CC1)n1cc(-c2nccc(Nc3cc(NC[C@H]4CC[C@@H](O)C4)c(-c4ccn(CC(F)(F)F)n4)cn3)n2)cn1 [Example 268, (1R,3S)-3-(((2-((2-(1-(Cyclopropylsulfonyl)-1H-pyrazol-4-yl)pyrimidin-4-yl)amino)-5-(1-(2,2,2-trifluoroethyl)-1H-pyrazol-3-yl)pyridin-4-yl)amino)methyl)cyclopentan-1-ol]
4 | 1.4 | 1.3 | 2.8 | 5750 | 29.9 | 1.3 | 1.4 | 0.5 | 7.1 | O=S(=O)(C1CC1)n1cc(-c2nccc(Nc3cc(N[C@H]4CC[C@@H](CCO)CC4)c(-c4ccn(CC(F)(F)F)n4)cn3)n2)cn1 [Example 269, 2-((1s,4s)-4-((2-((2-(1-(Cyclopropylsulfonyl)-1H-pyrazol-4-yl)pyrimidin-4-yl)amino)-5-(1-(2,2,2-trifluoroethyl)-1H-pyrazol-3-yl)pyridin-4-yl)amino)cyclohexyl)ethan-1-ol]
